Measurements from US8618167B2, “Methods of attenuating cognitive deficits with sulfonyl fluorides” (priority 2001, dated 2013).

Key:
[1] = molecular target: acetylcholinesterase in comparison to butyrylcholinesterase (Homo sapiens, UniProt P22303); conditions: cited from earlier work
[2] = system: ischemia-induced loss of hippocampal pyramidal cells and acetylcholine; conditions: pretreatment; cited from earlier work
[3] = molecular target: T1, acetylcholinesterase (Rattus norvegicus, UniProt P37136); test: Control acetylcholinesterase assays of brain after MSF treatment (Ellman spectrophotometric method); format: in vivo; conditions: same regimen; dissected brain part
T1 construct: from tissue; host or cells: rat brain (whole brain, hippocampus, cortex, striatum/nucleus accumbens)
T1 sequence (P37136 32-614): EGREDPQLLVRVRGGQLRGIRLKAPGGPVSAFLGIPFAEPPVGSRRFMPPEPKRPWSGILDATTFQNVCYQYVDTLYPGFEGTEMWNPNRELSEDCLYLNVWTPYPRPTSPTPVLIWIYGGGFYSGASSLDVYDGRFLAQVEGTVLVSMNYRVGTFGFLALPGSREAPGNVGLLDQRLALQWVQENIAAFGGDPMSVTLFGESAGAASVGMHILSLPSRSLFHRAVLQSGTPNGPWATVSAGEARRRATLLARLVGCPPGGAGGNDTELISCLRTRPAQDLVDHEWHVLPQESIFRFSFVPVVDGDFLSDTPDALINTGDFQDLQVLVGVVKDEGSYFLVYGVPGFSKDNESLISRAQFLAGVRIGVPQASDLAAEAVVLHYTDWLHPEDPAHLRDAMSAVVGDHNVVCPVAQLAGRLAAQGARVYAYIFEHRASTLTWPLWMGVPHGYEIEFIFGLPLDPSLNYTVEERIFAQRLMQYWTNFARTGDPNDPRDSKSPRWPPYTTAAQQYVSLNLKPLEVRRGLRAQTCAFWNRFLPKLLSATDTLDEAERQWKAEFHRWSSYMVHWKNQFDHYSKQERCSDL
Method: Control Acetylcholinesterase Assays. Two additional groups of normal control (non-ischemic) rats were treated with MSF (N=4) or peanut oil vehicle (N=4) in accordance with the exact procedures used with the other groups in order to estimate the level of acetylcholinesterase inhibition produced. At the end of the study, the rats were sacrificed and acetylcholinesterase assays were conducted at 25° C. according to the spectrophotometric method (Ellman et al., 1961) with minor modifications (pH set at 7.4 and using 1 mM acetyl-β-methyl-thiocholine iodide as substrate).
Drugs. For study 1, animals received ip injections of either MSF (1 mg/kg at 24 and 48 hrs post-MCAo and 0.3 mg/kg thereafter every other day) or the vehicle, peanut oil, for four weeks. Each animal received 0.5 ml of the solution. For study 2, animals received 1 mg/kg at 24 and 48 hrs post-MCAo and 0, 0.15, 0.30 or 0.6 mg/kg of MSF in peanut oil using the same regimen mentioned above. For study 3, animals were introduced to the same regimen as in study 1, but thereafter received peanut oil every other day from four weeks up to eight weeks post-MCAo.

[4] = system: brain acetylcholinesterase; conditions: cited from earlier work
[5] = system: septal ChAT immunoreactivity; test: Choline acetyltransferase (ChAT) immunohistochemistry of the septum; format: in vivo, rat
Method: Choline Acetyltransferase (ChAT) Immunohistochemistry. Following the behavioral test at 4 wks post-ischemia, randomly selected animals (n=4 per group) were deeply anesthetized and perfused intracardially with 150 ml saline followed by 150 ml of 4% paraformaldehyde. The brains were post-fixed overnight in 4% paraformaldehyde and subsequently immersed in 20% sucrose in 4% paraformaldehyde and stored at 8° C. until sectioning. A vibratome (Vibroslice, Fla.) was used to cut the brain (40 μm sections). Ten serial brain sections that included the septal region (+1.4 to +0.2 mm from the bregma) were processed for ChAT immunohistochemistry. Sections were pre-incubated in 5% blocking serum (normal goat, Jackson ImmunoResearch Laboratories, PA) in 0.1% Triton-X in 0.1 M NaPBS for 60 min, followed by incubation in the primary ChAT antibody (Boehringer Mannheim Biochemical, IN; 1:10 dilution in 0.1 M phosphate-buffered saline, NaPBS) at room temperature overnight. The sections were reacted with the appropriate biotinylated secondary antibody (1:2000) for 45 min, followed by an avidin-biotin-peroxidase complex system (ABC Elite Vectastain Kit, Vector, Burlingame, Calif.) for 45 min. Finally, the Vector VIP Kit (Vector, Burlingame, Calif.) was used to visualize the reaction product. The sections were mounted on gelatin-coated glass slides, dried overnight, dehydrated in increasing alcohol concentrations, and cover-slipped using Permount (Fisher Scientific, Pittsburgh, Pa.) mounting solution. Serial sections were digitized using a PC-based Image Tools computer program. To determine the ChAT alterations in the septum, comparisons of mean total number (average counts from ten brain sections per animal) of septal ChAT-immunoreactive (ir) neurons from MSF- and vehicle-treated ischemic animals were conducted. Individual counts of ChAT-ir neurons were made using the following criteria: heavily stained nuclei (HN), pale stained nuclei (PN) and presence of elaborate processes (P). […] In addition, a 5-point semi-quantitative scale was used to assess the intensity of ChAT immunoreactivity. […]

[6] = system: middle-aged and older rats; conditions: chronic MSF treatment; cited from earlier work
[7] = system: ischemic (MCAo) Sprague-Dawley rats; test: Elevated body swing test (EBST), motor asymmetry after MCAo; format: in vivo, rat; conditions: 4 wks after MCAo, MSF 1 mg/kg at 24 and 48 hrs then 0.3 mg/kg every other day i.p., mean±S.E.M., vehicle 84.8±10, p>0.05
[8] = system: ischemic (MCAo) Sprague-Dawley rats; test: Step-down passive avoidance test after MCAo; format: in vivo, rat
Source text: Experimental Protocol. A total of 48 eight-week-old, male, Sprague-Dawley rats weighing about 250 g served as subjects in the present study. All animals were free of virus antibody. A 3-day acclimation period was allowed prior to using the animals. Animals were kept under a 12-12 hr light/dark cycle and allowed free access to food and water before and after surgical procedures. All experimental procedures followed UTEP IACUC guidelines for use of animals in research to minimize discomfort in the animals during surgery and in the recovery period. […] In study one (n=24), the 0.3 mg/kg dose of MSF, which was previously reported as efficacious in ameliorating cognitive deficits in animals, was used to initially provide the putative drug's effects on ischemic animals. Studies two (dose response effects of MSF; n=16) and three (withdrawal of MSF; n=8) were conducted to further characterize the direct neurobehavioral effects of MSF. […]
The passive avoidance test followed the procedures described in detail elsewhere (Borlongan et al., 1998a; 1998b). […] Acquisition of the task was measured in terms of the amount of time it took the rat to remain on the platform continuously for 3 min. Twenty four hrs later, a retention test was conducted by placing the rat on the platform exactly as before and recording the latency to step-down measured to a maximum of 3 min. […]

[9] = molecular target: T2, brain AChE (Rattus norvegicus, UniProt P37136); conditions: cited from earlier work
T2 sequence (P37136 32-614): T1 sequence (P37136 32-614)

[10] = system: SDAT patients; conditions: cited from earlier work
[11] = system: ischemic (MCAo) Sprague-Dawley rats; conditions: rat, in vivo
[12] = chronic MSF 0.22 mg/kg three times per week
[13] = single systemic injection of 1.5 mg/kg MSF

Sequence of acetylcholinesterase in comparison to butyrylcholinesterase (P22303 32-614): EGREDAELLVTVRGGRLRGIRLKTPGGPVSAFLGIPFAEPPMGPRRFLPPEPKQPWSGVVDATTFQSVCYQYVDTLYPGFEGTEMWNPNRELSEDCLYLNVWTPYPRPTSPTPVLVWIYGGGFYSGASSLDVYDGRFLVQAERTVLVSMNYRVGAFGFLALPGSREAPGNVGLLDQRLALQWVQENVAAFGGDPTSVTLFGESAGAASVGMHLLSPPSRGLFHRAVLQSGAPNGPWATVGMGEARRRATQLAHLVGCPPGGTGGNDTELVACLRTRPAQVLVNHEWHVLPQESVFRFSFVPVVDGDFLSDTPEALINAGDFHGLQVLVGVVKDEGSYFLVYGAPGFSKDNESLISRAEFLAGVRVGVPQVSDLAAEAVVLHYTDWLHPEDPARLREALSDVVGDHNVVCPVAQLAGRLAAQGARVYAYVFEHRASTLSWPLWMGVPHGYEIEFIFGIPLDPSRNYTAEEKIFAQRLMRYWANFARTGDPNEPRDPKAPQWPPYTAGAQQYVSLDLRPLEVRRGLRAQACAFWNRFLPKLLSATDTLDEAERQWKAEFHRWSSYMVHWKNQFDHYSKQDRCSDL

COP(=O)(OC)C(O)C(Cl)(Cl)Cl (stereo not drawn) [metrifonate, reference compound]
selectivity as inhibitor of acetylcholinesterase in comparison to butyrylcholinesterase [1]: do not show this high degree of selectivity

CCN(C)C(=O)Oc1cccc([C@H](C)N(C)C)c1 [ENA-173]
levels of hippocampal acetylcholine and ischemia-induced loss of hippocampal pyramidal cells [2]: preserve the levels of hippocampal acetylcholine and to protect against ischemia-induced loss of pyramidal cells

CS(=O)(=O)F [MSF, Methanesulfonyl fluoride]
acetylcholinesterase inhibition in cortex [3]: 85.9% | acetylcholinesterase inhibition in hippocampus [3]: 88.5% | acetylcholinesterase inhibition in striatum/nucleus accumbens [3]: 95.0% | toxicity at accumulated brain acetylcholinesterase inhibition ([4]; at up to 80-90% brain inhibition): without toxicity | inhibition of brain acetylcholinesterase that can be accumulated ([4]; relatively small doses over a long period of time, minimum inhibition of peripheral enzyme): 80-90% | intensity of staining of ChAT-ir neurons in lateral and medial septum ([5]; compared to vehicle-treated ischemic animals): more intense staining of ChAT-ir neurons | increment in mean total number of HN+P ChAT-ir cells vs vehicle-treated ischemic animals ([5]; septum, 4 wks post-ischemia, heavily stained nuclei with processes, p<0.05): 10%-15% | increment in mean total number of HN ChAT-ir cells vs vehicle-treated ischemic animals ([5]; septum, 4 wks post-ischemia, heavily stained nuclei, p<0.05): 10%-15% | acquisition of one-trial per day discriminative reward learning task [6]: enhance the acquisition | biased swing activity (EBST) [7]: 87.7±8% | passive avoidance: time to acquire the task ([8]; 4 wks after MCAo, same regimen, mean±S.E.M., vehicle 398±62, p<0.05): 255 ± 36 s | passive avoidance: retention of the task (step down latency) ([8]; retention test 24 hrs after acquisition, max 3 min, vehicle 79±26, p<0.05): 145 ± 18 s | selectivity as inhibitor of acetylcholinesterase in comparison to butyrylcholinesterase [1]: high selectivity | decrement in brain AChE activity [9, 12]: about 50% | liver damage [9, 12]: no liver damage | locomotor side effects [9, 12]: without discernable locomotor side effects | behavioral alterations [9, 13]: no observable behavioral alterations | reduction of brain AChE activity [9, 13]: 70% | persistence of cognition-enhancing effects after withdrawal ([10]; SDAT patients): persisted up to eight weeks after withdrawal of the drug | cognitive performance of SDAT patients ([10]; double-blind, placebo-controlled study): significant clinical improvements | ischemia-induced apoptotic cell death [11]: did not block ischemia-induced apoptotic cell death | mean volume of infarcted tissue [11]: 78.1±14.2 mm^3
